# Results as given in article PMC11602153, “Differential redox sensitivity of tRNA dihydrouridylation” (Nucleic Acids Research, 2024).
# T1: DusC (Escherichia coli, UniProt P33371)
# T1 construct: expression construct, tags and host not described
# T1 sequence (P33371 1-315): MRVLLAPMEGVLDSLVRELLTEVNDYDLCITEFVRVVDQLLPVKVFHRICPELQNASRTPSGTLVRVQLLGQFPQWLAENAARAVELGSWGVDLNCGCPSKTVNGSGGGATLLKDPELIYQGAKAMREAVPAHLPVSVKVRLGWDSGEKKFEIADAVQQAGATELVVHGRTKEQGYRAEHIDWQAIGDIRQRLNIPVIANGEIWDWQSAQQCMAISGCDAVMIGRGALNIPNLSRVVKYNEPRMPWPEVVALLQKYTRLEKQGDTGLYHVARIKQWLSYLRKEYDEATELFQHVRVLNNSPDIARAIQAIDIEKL
# T2: DusB (Escherichia coli, UniProt P0ABT5)
# T2 construct: expression construct, tags and host not described
# T2 sequence (P0ABT5 1-321): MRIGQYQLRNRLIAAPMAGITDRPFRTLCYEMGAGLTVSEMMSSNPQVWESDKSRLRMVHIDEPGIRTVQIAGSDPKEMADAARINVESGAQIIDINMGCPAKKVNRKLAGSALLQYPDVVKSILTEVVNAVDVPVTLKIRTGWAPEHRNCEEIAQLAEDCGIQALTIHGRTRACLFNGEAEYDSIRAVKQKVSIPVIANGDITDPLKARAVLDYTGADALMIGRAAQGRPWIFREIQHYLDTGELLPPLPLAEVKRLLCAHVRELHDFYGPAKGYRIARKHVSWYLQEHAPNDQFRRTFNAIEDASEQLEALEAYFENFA
# T3: DusA (Escherichia coli, UniProt P32695)
# T3 construct: expression construct, tags and host not described
# T3 sequence (P32695 1-345): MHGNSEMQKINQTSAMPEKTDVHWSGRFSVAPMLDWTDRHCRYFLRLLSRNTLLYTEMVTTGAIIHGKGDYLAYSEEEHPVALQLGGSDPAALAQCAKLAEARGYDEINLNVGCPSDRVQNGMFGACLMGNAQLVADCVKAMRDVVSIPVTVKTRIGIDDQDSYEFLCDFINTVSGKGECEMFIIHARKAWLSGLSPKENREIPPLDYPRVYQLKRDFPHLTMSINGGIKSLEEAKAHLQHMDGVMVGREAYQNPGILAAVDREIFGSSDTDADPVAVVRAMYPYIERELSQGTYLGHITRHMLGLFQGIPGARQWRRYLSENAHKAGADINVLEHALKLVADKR
# B1: DusA (Escherichia coli K-12) (protein)
# chain: T3 sequence (P32695 1-345)
# notes: expression construct, tags and host not described
# Key:
# DusC = target: T1, DusC; experiment: flavin bound to the purified protein; format: binding; conditions: non-covalent; flavin named FMN elsewhere in the paper
# DusB = target: T2, DusB; experiment: flavin bound to the purified protein; format: binding; conditions: non-covalent; flavin named FMN elsewhere in the paper
# DusA = target: T3, DusA; experiment: flavin bound to the purified protein; format: binding; conditions: non-covalent; flavin named FMN elsewhere in the paper
# [1] = substrate: NC(=O)C1=CN([C@@H]2O[C@H](COP(=O)(O)OP(=O)(O)OC[C@H]3O[C@@H](n4cnc5c(N)ncnc54)[C@H](OP(=O)(O)O)[C@@H]3O)[C@@H](O)[C@H]2O)C=CC1; experiment: NADPH oxidase, spectrophotometric, steady state; format: biochemical, Escherichia coli; conditions: air (O2) as final electron acceptor, 50 mM HEPES pH 7.5, 150 mM NaCl, 15% glycerol, no tRNA
Molecule,flavin bound to the purified protein (DusC),flavin bound to the purified protein (DusB),flavin bound to the purified protein (DusA),Km [1],kcat [1]
Cc1cc2nc3c(=O)[nH]c(=O)nc-3n(C[C@H](O)[C@H](O)[C@H](O)COP(=O)(O)O)c2cc1C [FMN],"exhibited non-covalently bound flavin, associated with the apoproteins","exhibited non-covalently bound flavin, associated with the apoproteins","exhibited non-covalently bound flavin, associated with the apoproteins",–,–
B1,–,–,–,17 ± 3 µM,0.48 ± 0.072 s⁻¹
